Earlier results on one molecule are cited in PubChem BioAssay AID1259409 (Chemical Carcinogenesis Research Information System (CCRIS), 2018).

In the data set the test system is rodent chemically induced tumor inhibition, incidence and multiplicity. Briefly: CCRIS tumor inhibitor studies. The following applies: Species: RAT, Strain/Sex: F344/MALE.

As to `CC(C)=CCC/C(C)=C/COc1ccc2ccc(=O)oc2c1`, the “tumour outcome (control, treated, inhibition, significance)” value by setting is: (Carcinogen: AZOXYMETHANE, 25843-45-2, Dose [Inhibitor]: 0, 0.01% IN DIET FOR 4 WK BEGINNING 1 WK PRIOR TO CARCINOGEN TREATMENT (STUDY DURATION: 38 WK), Route [Inhibitor]: ORAL, Target Tissue: Type of Lesion: COLON: ADENOCARCINOMA, Dose [Carcinogen]: 15 MG/KG BW 1/WK FOR 3 WK, Promoter: NONE) 60%, 34%, 43%, not significant; (Carcinogen: AZOXYMETHANE, 25843-45-2, Dose [Inhibitor]: 0, 0.01% IN DIET FOR 34 WK BEGINNING 1 WK POST LAST CARCINOGEN DOSE (STUDY DURATION: 38 WK), Route [Inhibitor]: ORAL, Target Tissue: Type of Lesion: COLON: ADENOCARCINOMA, Dose [Carcinogen]: 15 MG/KG BW 1/WK FOR 3 WK, Promoter: NONE) 60%, 24%, 60%, p<0.021; (Carcinogen: AZOXYMETHANE, 25843-45-2, Dose [Inhibitor]: 0, 0.05% IN DIET FOR 4 WK BEGINNING 1 WK PRIOR TO CARCINOGEN TREATMENT (STUDY DURATION: 38 WK), Route [Inhibitor]: ORAL, Target Tissue: Type of Lesion: COLON: ADENOCARCINOMA, Dose [Carcinogen]: 15 MG/KG BW 1/WK FOR 3 WK, Promoter: NONE) 60%, 20%, 67%, p<0.0075; (Carcinogen: AZOXYMETHANE, 25843-45-2, Dose [Inhibitor]: 0, 0.05% IN DIET FOR 34 WK BEGINNING 1 WK POST LAST CARCINOGEN DOSE (STUDY DURATION: 38 WK), Route [Inhibitor]: ORAL, Target Tissue: Type of Lesion: COLON: ADENOCARCINOMA, Dose [Carcinogen]: 15 MG/KG BW 1/WK FOR 3 WK, Promoter: NONE) 60%, 20%, 67%, p<0.0075; (Carcinogen: DIETHYLNITROSAMINE [55-18-5], Dose [Inhibitor]: 500 PPM IN DIET FOR 7 WKS, STARTING 1 WK BEFORE CARCINOGEN (STUDY DURATION: 32 WKS), Route [Inhibitor]: DIET, Target Tissue: Type of Lesion: LIVER: ADENOMA, Dose [Carcinogen]: 40 PPM FOR 5 WKS (STUDY DURATION: 32 WKS)) 46%, 46%, 0%; (Carcinogen: DIETHYLNITROSAMINE [55-18-5], Dose [Inhibitor]: 500 PPM IN DIET FOR 7 WKS, STARTING 1 WK BEFORE CARCINOGEN (STUDY DURATION: 32 WKS), Route [Inhibitor]: DIET, Target Tissue: Type of Lesion: LIVER: CARCINOMA, Dose [Carcinogen]: 40 PPM FOR 5 WKS (STUDY DURATION: 32 WKS)) 100%, 63%, 37%. The “tumour outcome (control, treated, inhibition, significance)” value (Carcinogen: DIETHYLNITROSAMINE [55-18-5], Dose [Inhibitor]: 500 PPM IN DIET FOR 25 WKS BEGINNING 1 WK AFTER END OF CARCINOGEN TREATMENT, Route [Inhibitor]: DIET, Target Tissue: Type of Lesion: LIVER: ADENOMA, Dose [Carcinogen]: 40 PPM FOR 5 WKS (STUDY DURATION: 32 WKS)) was 46%, 42%, 8.7% and the “tumour outcome (control, treated, inhibition, significance)” value (Carcinogen: DIETHYLNITROSAMINE [55-18-5], Dose [Inhibitor]: 500 PPM IN DIET FOR 25 WKS BEGINNING 1 WK AFTER END OF CARCINOGEN TREATMENT, Route [Inhibitor]: DIET, Target Tissue: Type of Lesion: LIVER: CARCINOMA, Dose [Carcinogen]: 40 PPM FOR 5 WKS (STUDY DURATION: 32 WKS)) is reported as 100%, 33%, 67%.
